According to US12090172B2, “Suicide gene therapeutic agent for brain tumors using pluripotent stem cell” (KEIO UNIVERSITY, priority 2017, dated 2024):

Assays:
human glioma cells (U87) [1] = assay: Suicide gene cell therapy with TSCs (1) expressing yCD-UPRT, transplantation model after tumor formation; type: in vivo; conditions: control group 2: TSC (−)/5FC (+) 5 mg/day, only U87 transplanted
Procedure: First, 1×10^4 cells/2 μl U87-ffLuc was transplanted to the right striate body (2 mm away from the anterior fontanel to the right and 3 mm deep from the brain surface) of each T cell-deficient mouse (female BALB/c nude mouse, 20 g, 6 w) subjected to general anesthesia, and 1×10^6 cells/2 μl TSCs expressing yCD-UPRT (yCD-UPRT is introduced into NS/PCs with the lentiviral vector) were stereotactically transplanted to the same site 5 days later. The take of tumor cells was confirmed 2 days later with an IVIS, that is, an in vivo imaging system, and 500 μl of 5-FC (10 mg/ml) was then intraperitoneally administered to a treated group once per day for 2 weeks (TSC (+)/5-FC (+) 5 mg/day, n=9). Next, 500 μl of 1 M PBS was administered to a control group 1 for 2 weeks in the same way (control group 1: TSC (+)/5-FC (−), n=9). A group to which only U87-ffLuc was transplanted was also generated as another control group, and 500 μl of 5-FC (10 mg/ml) was intraperitoneally administered to this once per day for 2 weeks (control group 2: TSC (−)/5-FC (+) 5 mg/day, n=3). […]
(§1) The survival analysis was performed while the luminescence imaging analysis (IVIS) of tumors was performed chronologically. […]

human glioma cells (U87) [2] = assay: Suicide gene cell therapy with TSCs (1) expressing yCD-UPRT, mixture transplantation model; type: in vivo; conditions: control group 2: TSC (−)/5FC (+) 5 mg/day, only U87 transplanted
human glioma cells (U87) [3] = assay: Suicide gene cell therapy with Tet-induced TSCs (3) expressing yCD-UPRT, mixture transplantation model; type: in vivo, mouse; conditions: control group 2: TSC (−)/5-FC (+)/Dox (+), only U87-ffLuc transplanted
Procedure: First, 1×10^5 cells/2 μl U87-ffLuc and 5×10^5 cells/2 μl TSCs (3) (Tet-induced yCD-UPRT was introduced into iPS cells with the lentiviral vector) were mixed and stereotactically transplanted to the right striate body (2 mm away from the anterior fontanel to the right and 3 mm deep from the brain surface) of each T cell-deficient mouse (female BALB/c nude mouse, 20 g, 6 w) subjected to general anesthesia. Then, 500 μl of 5-FC (10 mg/ml) was intraperitoneally administered once per day for 2 weeks from the next day (treated group 1: TSC (+)/5-FC (+)/Dox (+), n=7). Next, 500 μl of 1 M PBS was administered to a control group 1 for 2 weeks in the same way (control group 1: TSC (+)/[…], n=9). A group to which only U87-ffLuc was transplanted was also generated as another control group, and 500 μl of 5-FC (10 mg/ml) was intraperitoneally administered to this once per day for 2 weeks (control group 2: TSC (−)/5-FC (+)/Dox (+), n=4). Feed containing 200 mg/kg of Dox was orally ingested. A method for evaluating tumors, the analysis of survival curves and the like were all performed in the same way as the above. […]
Survival analysis was performed, while the luminescence imaging analysis (IVIS) of the tumors was performed chronologically. […]

[4] = tested on: Tet-induced NS/PCs expressing yCD-UPRT; assay: Cell death induction by Dox and 5-FC added to the medium; type: cell-based, human; conditions: 1 μg/ml Dox and 1 μg/ml 5-FC added to the medium
Procedure: Differentiation induction from the Tet-induced iPS cells expressing yCD-UPRT to NS/PCs was performed to obtain secondary and tertiary Tet-induced NS/PCs expressing yCD-UPRT.

[5] = tested on: NS/PCs expressing yCD-UPRT (TSCs (1), lentiviral vector); assay: Cell death induction by 5-FC added to the medium; type: cell-based, human; conditions: 1 μg/ml 5-FC added to the medium
Excerpt: Secondary to quaternary NS/PCs differentiation-induced from the human iPS cells were collected by a centrifuge, disassembled into single cells using TrypLE Select, suspended in NS medium, inoculated into a low adhesive flask at a concentration of 1×10^5 cells/ml, infected with a CSIV-EF-yCD-UPRT-IRES2-hKO1 lentiviral vector at an MOI (multiplicity of infection) of 1 to 2 and cultured for 7 days with the medium replaced every 3 to 4 days. The obtained NS/PCs were infected with the CSIV-EF-yCD-UPRT-IRES2-hKO1 lentiviral vector at an MOI of 1 to 2 in the same way again to prepare therapeutic stem cells (TSCs (1)), that is, NS/PCs expressing yCD-UPRT. It was confirmed that the cell death of the NS/PCs expressing yCD-UPRT was induced by adding 1 μg/ml 5-FC (fluorocytosine) to the medium.

[6] = tested on: NS/PCs expressing yCD-UPRT (TSCs (2), GAPDH gene region, CRISPR/Cas9); assay: Cell death induction by 5-FC added to the medium; type: cell-based, human; conditions: 1 μg/ml 5-FC added to the medium
Procedure: Differentiation induction from iPS cells in which yCD-UPRT was incorporated into the GAPDH gene region to NS/PCs was performed to obtain secondary to quinary NS/PCs (TSCs (2)). Culture was performed with 2 μg/ml blasticidin S always added to the medium. It was confirmed that the cell death of the NS/PCs expressing yCD-UPRT was induced by adding 1 μg/ml 5-FC to the medium.

human glioma cells (U87) [7] = assay: Suicide gene cell therapy with TSCs expressing yCD-UPRT with CRISPR/Cas9, transplantation model after tumor formation; type: in vivo, mouse; conditions: control group 2: TSC (−)/5FC (+), only U87 transplanted
Procedure: First, 1×10^4 cells/2 μl U87-ffLuc was transplanted to the right striate body (2 mm away from the anterior fontanel to the right and 3 mm deep from the brain surface) of each T cell-deficient mouse (female BALB/c nude mouse, 20 g, 6 w) subjected to general anesthesia, and 1×10^6 cells/2 μl TSCs expressing yCD-UPRT (yCD-UPRT is introduced into iPS cells with CRISPR/Cas9) were stereotactically transplanted to the same site 5 days later. The take of tumor cells was confirmed 2 days later with an IVIS, that is, an in vivo imaging system, and further 2 days later, 500 μl of 5-FC (10 mg/ml) was intraperitoneally administered to a treated group once per day for 2 weeks (TSC (+)/5-FC (+), n=8). Then, 500 μl of 1 M PBS was administered to a control group 1 for 2 weeks in the same way (control group 1: TSC/5-FC (−), n=7). A group to which only U87-ffLuc was transplanted was also generated as another control group, and 500 μl of 5-FC (10 mg/ml) was intraperitoneally administered to this once per day for 2 weeks (control group 2: TSC (−)/5-FC (+), n=3).
A method for evaluating tumors, the analysis of survival curves and the like were all performed in the same way as the above. […]
as §1

[8] = tested on: Tet-induced iPS cells expressing yCD-UPRT; assay: Cell death induction by Dox and 5-FC added to the medium; type: cell-based, human; conditions: 1 μg/ml doxycycline (Dox) and 1 μg/ml 5-FC added to the medium
Procedure: Human iPS cells were infected with the CSIV-yCD-UPRT-TRE-EF-KT lentiviral vector at an MOI of around 15 and cultured, the clones were then sorted with a cell sorter to obtain an iPS cell line expressing hKO1 steadily and highly. It was confirmed that the cell death of the Tet-induced iPS cells expressing yCD-UPRT was induced by adding 1 μg/ml doxycycline (Dox) and 1 μg/ml 5-FC to the medium.

## Nc1nc(=O)[nH]cc1F [5-FC, 5-fluorocytosine]
Human glioma cells (U87) [1]
  average survival period: 21 days
Human glioma cells (U87) [2]
  average survival period: 21 days
Human glioma cells (U87) [3]
  average survival period: 19 days
[4]
  cell death: induced
[5]
  cell death: induced
[6]
  cell death: induced
Human glioma cells (U87) [7]
  average survival period: 21 days
[8]
  cell death: induced
